Test results taken from publication PMC11954145, “Antimicrobial and ADME properties of methoxylated, methylated and nitrated 2-hydroxynaphthalene-1 carboxanilides” (ADMET & DMPK, 2025).
≈ marks a conversion by molar mass, not a printed value. Where “and” joins values, the source holds several entries; their conditions need not be identical. Equal values may be shown once. Read-outs that look alike come from different tables or passages of the source.

What was measured:
[1] = system: Enterococcus faecalis ATCC 29212; assay: Antibacterial screening, broth microdilution MIC; type: cell-based; conditions: read-out: MIC E. faecalis
S. aureus ATCC 29213 = assay: Antibacterial screening, broth microdilution MIC; type: cell-based; conditions: Staphylococcus aureus, read-out: MIC S. aureus
MRSA SA 3202 = assay: Antibacterial screening, broth microdilution MIC; type: cell-based, methicillin-resistant S. aureus; conditions: Staphylococcus aureus, read-out: MIC MRSA SA 3202
VRE 368 = assay: Antibacterial screening, broth microdilution MIC; type: cell-based, vancomycin-resistant E. faecalis; conditions: Enterococcus, vanA isolate, 24 h at 37 °C, read-out: MIC VRE 368
MRSA SA 630 = assay: Antibacterial screening, broth microdilution MIC; type: cell-based, methicillin-resistant S. aureus; conditions: Staphylococcus aureus, read-out: MIC MRSA SA 630
MRSA 63718 = assay: Antibacterial screening, broth microdilution MIC; type: cell-based, methicillin-resistant S. aureus; conditions: Staphylococcus aureus, read-out: MIC MRSA 63718
VRE 342B = assay: Antibacterial screening, broth microdilution MIC; type: cell-based, vancomycin-resistant E. faecalis; conditions: Enterococcus, vanA isolate, 24 h at 37 °C, read-out: MIC VRE 342B
[2] = system: Mycobacterium smegmatis ATCC 700084; assay: Antimycobacterial screening, broth dilution MIC; type: cell-based; conditions: Mycolicibacterium smegmatis, ATCC700084, 72 h, read-out: MIC M. smegmatis
[3] = system: Mycobacterium tuberculosis ATCC 25177/H37Ra; assay: Antimycobacterial screening, broth dilution MIC (Alamar blue); type: cell-based; conditions: 336 h, H37Ra, 14 days at 37 °C, Alamar blue, read-out: MIC M. tuberculosis
Experimental: The evaluation of in vitro antimycobacterial activity of the compounds was performed against Mycobacterium tuberculosis ATCC 25177/H37Ra, Mycobacterium kansasii DSM 44162 and Mycobacterium smegmatis ATCC 700084.
The broth dilution micro-method in Middlebrook 7H9 medium (Difco, Lawrence, KS, USA) supplemented with ADC Enrichment (Difco) was used to determine the minimum inhibitory concentration (MIC) as previously described. […] The final concentrations of the evaluated compounds, ranging from 256 to 0.125 μg mL^-1, were obtained by twofold serial dilution of the stock solution in a microtiter plate with a sterile medium. Bacterial inocula were prepared by transferring colonies from culture to sterile water. The plate was inoculated by tested microorganisms. The final concentration of bacterial cells was 1.5×10^6 for M. tuberculosis and 10^5 cells in a microtiter plate for other mycobacteria. Isoniazid and rifampicin (Sigma) were used as reference antimycobacterial drugs. Drug-free controls, sterility controls, and controls consisting of medium and DMSO alone were included. The plates were incubated for a defined time at an appropriate temperature (3 days at 37 °C for M. smegmatis, and 14 days at 37 °C for M. tuberculosis and M. kansasii). […] The MICs against M. tuberculosis were evaluated by Alamar blue (Oxoid). After incubation, 10 % of Alamar blue was added to each well, and the plate was incubated for 24 h. The MIC values were assessed as the lowest concentration of the tested compounds, which prevented changing blue resazurin to pink resorufin. The experiments were repeated three times. The minimum inhibitory concentrations (MICs) were defined as the lowest concentration of the compound at which no visible bacterial growth was observed. The MIC value is routinely and widely used in bacterial assays and is a standard detection limit according to the CLSI [60].

[4] = Lipophilicity determination by RP-HPLC (log k, log D); type: physicochemical; conditions: for log D6.5: RP-HPLC C18, MeOH 72 % / acetate-buffered saline pH 6.5; for log D7.4: RP-HPLC C18, MeOH 72 % / acetate-buffered saline pH 7.4; for log k (logarithm of the capacity factor): RP-HPLC C18, MeOH 72 % / water 28 %
Description: An HPLC system Agilent 1200 equipped with a DAD detector (Agilent, Santa Clara, CA, USA) was used. A chromatographic column Symmetry® C18 5 μm, 4.6×250 mm, part No. WAT054275 (Waters Corp., Milford, MA, USA) was used. The HPLC separation process was monitored and evaluated with EZChrom Elite software ver. 3.3.2 (Agilent). Isocratic elution by a mixture of MeOH p.a. (72 %) and H2O-HPLC Mili-Q grade (28 %) as a mobile phase was used for the determination of capacity factor k. Isocratic elution by a mixture of MeOH p.a. (72 %) and acetate-buffered saline (pH 7.4 and pH 6.5) (28 %) as a mobile phase was used for the determination of distribution coefficients expressed as D7.4 and D6.5. The total flow of the column was 1.0 mL min^-1, the injection volume was 20 μL, the column temperature was 40 °C, and the sample temperature was 10 °C. The detection wavelength of 210 nm was chosen. A KI methanolic solution was used to determine the dead times (tD). Retention times (tR) were measured in minutes. The capacity factors k were calculated according to the formula k = (tR–tD)/tD, where tR is the retention time of the solute, and tD is the dead time obtained using an unretained analyte. The distribution coefficients DpH were calculated according to the formula DpH = (tR–tD)/tD. Each experiment was repeated three times.
The capacity factor and distribution coefficients were measured by RP-HPLC on a C18 column with methanol as an organic modifier of the mobile phase. In addition to the experimental lipophilicities, predicted log P values were also calculated using ACD/Percepta, see Table 1. […] The values of σ(Ar) are found in a wide range from 0.01 to 1.36, so the compounds contain substituents with both electron-donating and slightly electron-withdrawing properties.

E. coli ATCC 25922 = assay: Antibacterial screening, broth microdilution MIC; type: cell-based; conditions: Escherichia coli, ATCC25922; ATCC 25922, 24 h at 37 °C
VRE 725B = assay: Antibacterial screening, broth microdilution MIC; type: cell-based, vancomycin-resistant E. faecalis; conditions: Enterococcus, vanA isolate, 24 h at 37 °C, read-out: MIC VRE 725B
[5] = system: Mycobacterium kansasii DSM 44162; assay: Antimycobacterial screening, broth dilution MIC; type: cell-based; conditions: DSM44162, 336 h, read-out: MIC M. kansasii
[6] = ATCC29212, ATCC 29212, 24 h at 37 °C
[7] = clinical isolate, 24 h at 37 °C
[8] = ATCC29213, ATCC 29213, 24 h at 37 °C

Row | SMILES | MIC [1, 6] | MIC (VRE 368) | MIC (MRSA 63718; [7]) | MIC (VRE 342B) | MIC ([2]; ATCC 700084, 3 days at 37 °C) | MIC [3] | log D6.5 [4] | log D7.4 [4] | log k (logarithm of the capacity factor) [4] | MIC (E. coli ATCC 25922) | MIC (VRE 725B) | MIC ([5]; DSM 44162, 14 days at 37 °C) | MIC (S. aureus ATCC 29213; [8]) | MIC (MRSA SA 3202; [7]) | MIC (MRSA SA 630; [7]) | MIC [5] | other results
1 | Cc1cccc(C)c1NC(=O)c1c(O)ccc2ccccc12 [Compound 12, N-(2,6-Dimethylphenyl)-2-hydroxynaphthalene-1-carboxamide] | 879 µM (≈ 256 µg/mL) | 879 µM (≈ 256 µg/mL) | 879 µM (≈ 256 µg/mL) | 879 µM (≈ 256 µg/mL) | 879 µM (≈ 256 µg/mL) | 439 µM (≈ 128 µg/mL) | 0.0838 | 0.0923 | 0.0785 | 879 µM (≈ 256 µg/mL) | 879 µM (≈ 256 µg/mL) | 879 µM (≈ 256 µg/mL) | – | – | – | – | MIC (S. aureus ATCC 29213; ATCC29213, 24 h): 439 µM (≈ 128 µg/mL); MIC (MRSA SA 3202; 24 h): 439 µM (≈ 128 µg/mL); MIC (MRSA SA 630; 24 h): 439 µM (≈ 128 µg/mL)
2 | COc1ccc(C(F)(F)F)cc1NC(=O)c1c(O)ccc2ccccc12 [Compound 20, 2-Hydroxy-N-[2-methoxy-5-(trifluoromethyl)phenyl]naphthalene-1-carboxamide] | 709 µM (≈ 256 µg/mL) | 709 µM (≈ 256 µg/mL) | 709 µM (≈ 256 µg/mL) | 709 µM (≈ 256 µg/mL) | 709 µM (≈ 256 µg/mL) | 354 µM (≈ 128 µg/mL) | 0.5323 | 0.5305 | 0.5335 | 709 µM (≈ 256 µg/mL) | 709 µM (≈ 256 µg/mL) | 709 µM (≈ 256 µg/mL) | 709 µM (≈ 256 µg/mL) | 709 µM (≈ 256 µg/mL) | 709 µM (≈ 256 µg/mL) | – | –
3 | Cc1ccccc1NC(=O)c1c(O)ccc2ccccc12 [Compound 8, 2-hydroxy-N-(2-methylphenyl)naphthalene-1-carboxamide] | 462 µM (≈ 128 µg/mL) | 462 µM (≈ 128 µg/mL) | 462 µM (≈ 128 µg/mL) | 462 µM (≈ 128 µg/mL) | 462 µM (≈ 128 µg/mL) | 231 µM (≈ 64.1 µg/mL) | 0.0745 | 0.0838 | 0.0858 | 462 µM (≈ 128 µg/mL) | 462 µM (≈ 128 µg/mL) | 115 µM (≈ 31.9 µg/mL) | 462 µM (≈ 128 µg/mL) | 462 µM (≈ 128 µg/mL) | 462 µM (≈ 128 µg/mL) | – | –
4 | COc1ccc(Cl)c(NC(=O)c2c(O)ccc3ccccc23)c1 [Compound 18, N-(2-Chloro-5-methoxyphenyl)-2-hydroxynaphthalene-1-carboxamide] | 781 µM (≈ 256 µg/mL) | 781 µM (≈ 256 µg/mL) | 195 µM (≈ 63.9 µg/mL) | 781 µM (≈ 256 µg/mL) | 781 µM (≈ 256 µg/mL) | 391 µM (≈ 128 µg/mL) | 0.4607 | 0.4593 | 0.46 and 0.4635 | 781 µM (≈ 256 µg/mL) | 781 µM (≈ 256 µg/mL) | – | 48.8 µM (≈ 16 µg/mL) | 97.6 µM (≈ 32 µg/mL) | 48.8 µM (≈ 16 µg/mL) | 391 µM (≈ 128 µg/mL) | –
5 | COc1cccc(C)c1NC(=O)c1c(O)ccc2ccccc12 [Compound 16, 2-Hydroxy-N-(2-methoxy-6-methylphenyl)naphthalene-1-carboxamide] | – | 208 µM (≈ 63.9 µg/mL) | 833 µM (≈ 256 µg/mL) | 208 µM (≈ 63.9 µg/mL) | – | 416 µM (≈ 128 µg/mL) | 0.0284 | 0.0382 | 0.0124 | 833 µM (≈ 256 µg/mL) | 833 µM (≈ 256 µg/mL) | – | 833 µM (≈ 256 µg/mL) | 833 µM (≈ 256 µg/mL) | 833 µM (≈ 256 µg/mL) | 833 µM (≈ 256 µg/mL) | MIC ([1]; ATCC29212, 24 h): 416 µM (≈ 128 µg/mL); MIC [2]: 416 µM (≈ 128 µg/mL)
6 | COc1ccc(C)c(NC(=O)c2c(O)ccc3ccccc23)c1 [Compound 17, 2-Hydroxy-N-(5-methoxy-2-methylphenyl)naphthalene-1-carboxamide] | 833 µM (≈ 256 µg/mL) | 833 µM (≈ 256 µg/mL) | – | 833 µM (≈ 256 µg/mL) | – | 416 µM (≈ 128 µg/mL) | 0.1047 | 0.1113 | 0.0892 | 833 µM (≈ 256 µg/mL) | 833 µM (≈ 256 µg/mL) | – | 104 µM (≈ 32 µg/mL) | 208 µM (≈ 63.9 µg/mL) | 208 µM (≈ 63.9 µg/mL) | 833 µM (≈ 256 µg/mL) | MIC (MRSA 63718; 24 h): 416 µM (≈ 128 µg/mL); MIC [2]: 416 µM (≈ 128 µg/mL)
7 | COc1ccc(C)cc1NC(=O)c1c(O)ccc2ccccc12 [Compound 15, 2-Hydroxy-N-(2-methoxy-5-methylphenyl)naphthalene-1-carboxamide] | 833 µM (≈ 256 µg/mL) | 833 µM (≈ 256 µg/mL) | 833 µM (≈ 256 µg/mL) | 833 µM (≈ 256 µg/mL) | 833 µM (≈ 256 µg/mL) | 416 µM (≈ 128 µg/mL) | 0.4974 | 0.5012 | 0.4932 | 833 µM (≈ 256 µg/mL) | 833 µM (≈ 256 µg/mL) | – | 833 µM (≈ 256 µg/mL) | 833 µM (≈ 256 µg/mL) | 833 µM (≈ 256 µg/mL) | 833 µM (≈ 256 µg/mL) | –
8 | Cc1cc(C)c(NC(=O)c2c(O)ccc3ccccc23)c(C)c1 [Compound 14, 2-Hydroxy-N-(2,4,6-trimethylphenyl)naphthalene-1-carboxamide] | 838 µM (≈ 256 µg/mL) | 838 µM (≈ 256 µg/mL) | 838 µM (≈ 256 µg/mL) | 838 µM (≈ 256 µg/mL) | 210 µM (≈ 64.1 µg/mL) | 210 µM (≈ 64.1 µg/mL) | 0.2629 | 0.2691 | 0.2539 | 838 µM (≈ 256 µg/mL) | 838 µM (≈ 256 µg/mL) | 838 µM (≈ 256 µg/mL) | 838 µM (≈ 256 µg/mL) | 419 µM (≈ 128 µg/mL) | 838 µM (≈ 256 µg/mL) | – | –
9 | COc1ccc(Br)cc1NC(=O)c1c(O)ccc2ccccc12 [Compound 19, N-(5-Bromo-2-methoxyphenyl)-2-hydroxynaphthalene-1-carboxamide] | 688 µM (≈ 256 µg/mL) | 688 µM (≈ 256 µg/mL) | 688 µM (≈ 256 µg/mL) | 688 µM (≈ 256 µg/mL) | 688 µM (≈ 256 µg/mL) | 344 µM (≈ 128 µg/mL) | 0.5836 | 0.5835 | 0.5845 | 688 µM (≈ 256 µg/mL) | 688 µM (≈ 256 µg/mL) | 688 µM (≈ 256 µg/mL) | 688 µM (≈ 256 µg/mL) | 688 µM (≈ 256 µg/mL) | 688 µM (≈ 256 µg/mL) | – | –
